From patent publication US20180051284A1, “INHIBITORS OF MIR-17-92 CLUSTER FOR ANTI-TUMOR ACTIVITY IN MULTIPLE MYELOMA AND OTHER MALIGNANCIES” (priority 2014, published 2018)
l = locked nucleic acid (LNA); d = 2'-deoxy (DNA)

Legend:
[1] = tested on: NCI-H929 cells; test: Flow cytometry of 7-AAD stained cells after transfection; type: cell-based, Human; settings: transfection 25 nM, as compared to RNase-free water
Method: 3×10^5 cells were transfected using Neon Transfection System (Invitrogen, Calif.,U.S.), (2 pulses at 1150, 30ms). The transfection efficiency evaluated by flow-cytometric analysis relative to a FAM dye—labeled anti-miR—negative control reached 85% to 90%.
(§1) 7-aminoactinomycin was used to evaluate cell viability. The staining was performed according to manufacturer's instructions.

[2] = tested on: CD138+ plasma cells derived from MGUS patients; test: Cell viability (7-AAD) of MGUS plasma cells after gymnotic exposure; type: cell-based, Human; settings: 6 days gymnotic exposure, 5 μM
Method: Following informed consent approved by our University Hospital Ethical Commitee, CD138+cells were isolated from the BM aspirates of both Monoclonal gammopathy of undetermined significance (MGUS) and myeloma patients by Ficoll-Hypaque density gradient sedimentation followed by antibody-mediated positive selection using anti-CD138 magnetic activated cell separation microbeads (Miltenyi Biotech, Gladbach, Germany). Purity of immunoselected cells were assessed by flow-cytometric analysis using a phycoerythrin-conjugated CD138 monoclonal antibody by standard procedures.
as §1

[3] = tested on: AMO1/abzb xenografts; test: In vivo tumor growth of Bortezomib-refractory AMO1/abzb xenografts (IVIS); design: species or system mice; settings: I.P. 2 mg/kg at day 1-4-8-15-22; Bortezomib-refractory model
From the text: Male CB-17 severe combined immunodeficient (SCID) mice (6- to 8-weeks old; Harlan Laboratories, Inc., Indianapolis) were housed and monitored in our Animal Research Facility. All experimental procedures and protocols had been approved by the Institutional Ethical Committee (Magna Graecia University) and conducted according to protocols approved by the National Directorate of Veterinary Services (Italy). In accordance with institutional guidelines, mice were sacrificed when tumors reached 2 cm in diameter or in the event of paralysis or major compromise, to prevent unnecessary suffering. Animal experimental procedures have been performed as in previous reports (Di Martino et al, CCR 2012; Di Martino el al. Oncotarget 2013, Di Martino et al PlosOne 2014). […] Mice were also inoculated with 5×10^6 luciferase gene-marked U266, AMO-1, AMO-1/abzb, treatments were performed intraperitoneally (i.p.), and tumor volume were measured by IVIS Lumina II.
In vivo anti-MM activity of LNA gapmer_06 was next evaluated in NOD/SCID mice bearing subcutaneous AMO1 xenografts. […] Tumors volume were measured using IVIS LUMINA II Imaging We next evaluate the in vivo activity in Bortezomib-refractory model of human MM. […] Tumors volume were measured using IVIS LUMINA II Imaging System.

[4] = tested on: INA-6 cells; test: INA-6 SCID-hu model, serum shuIL-6R; type: in vivo, mice; settings: I.P. 2 mg/kg at day 1-4-8-15-22; compared to controls
Method: The SCID-hu model was performed implanting human fetal long bone grafts sc into SCID mice (SCID-hu). Four weeks following bone implantation, 2.5×10^6 INA-6 multiple myeloma cells were injected directly into the human bone implant. Because INA-6 cells release soluble human IL-6 receptor (shuIL-6R), we used this marker to monitor tumor growth in SCID-hu mice.
Mouse sera were serially monitored for shulL-6R levels by ELISA (Quantikine […]; R&D Systems). Mice developed detectable serum shuIL-6R ˜4 weeks following INA-6 cell injection and then were […]. Three days after the last injection, blood samples were collected and analyzed (R&D Systems).
The in vivo activity of gapmer_06 was also evaluate in a orthotopic model of human MM using U266 cells, to explore the efficacy in relation to the microenvironment. Orthotopic murine model was performed by the use of NOD/SCID mice intravenously injected with luciferase gene-marked U266 cells. Tumor growth was monitored using IVIS LUMINA II Imaging System. […] Engraftment was determined by sacrificing mice after 10 weeks and analyzing bone marrow for luciferase gene-marked U266 cells. […] Mice were treated I.P. with gapmer_06 at concentration of 2 mg/kg at day 1-4-8-15-22, and serum shulL-6R levels were serially determined as a marker of tumor growth.

[5] = tested on: Capan1, MCF7, MDA231, LXF-289, A-549, NCI-H82, 5637, BCMW.1 and MPM-209 cells; test: CCK-8 proliferation of non-myeloma cancer cell lines after gymnotic exposure; type: cell-based, Human; settings: 6 days gymnotic exposure, 0-2,5-5-10 μM
Method: Cells were seeded at low plating density in order to reach confluence on the final day of the experiments (day 6). Cell number at plating ranged from 0.5 to 2.5×10^3 in 96-well plates, from 2.5 to 10×10^3 in 12-well plates and from 1 to 3×10^4 in 6-well plates.
Cells were seeded in 100 μL (suspension cell lines) or 50 μL (adherent cell lines) of culture medium at a density ranging from 0,5 to 2,5×10^3 cells per well. Survival was evaluated by both Cell Counting Kit-8 colorimetric assay (CCK-8, Dojindo Molecular Technologies, Japan) and CellTiter-Glo Luminescent Cell Viability Assay (Promega Madison, Wis., USA). Assays were performed according to the manufacturer's instructions. The optical density (OD) was evaluated at wave length of 450 nm. Both OD and luminescence were recorded with the GloMax-multi detection system (Promega, Madison, Wis., USA).
Specifically, we gymnotically exposed for 6 days to 0-2,5-5-10 μM of gapmer_06, the following cell lines: Capan1 pancreatic cancer cells, MCF7 and MDA231 breast cancer cells, LXF-289, A-549 and NCI-H82 lung cancer cells, 5637 bladder cancer cells, BCMW.1 Waldenstrom Macroglobulinemia cells and MPM-209 mesothelioma cells.

## gapmer_06: LNA/DNA gapmer, SEQ ID 4 (14 mer): +T*+A*+C*T*T*G*C*T*T*G*G*+C*+T*+T; + LNA, * phosphorothioate (antisense TACTTGCTTGGCTT; sugars from the 5' end l3 d8 l3, all phosphorothioate, methylation of C not given here)
[1]
  reduction of live cells (7-AAD): 20%
[2]
  cell viability (7-AAD): unaffected
[3]
  tumor growth (IVIS tumor volume): significant tumor-growth inhibition
[4]
  tumor growth (serum shuIL-6R levels): significant tumor-growth inhibition
[5]
  proliferation (CCK-8 cell growth analysis): impair proliferation of all cell lines
